Results as given in the supplement of paper PMC4862054.

Assays:
Assay in all cases: normalised response (% of control), CellTiter-Glo; higher = more viable cells (100 = DMSO, 0 = benzethonium chloride kill control)
Settings in all cases: incubation time: 72 h
[1] = test system: BT-474
Outline: (§1)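 The table gives the normalised signal for a single concentration in each entry. Breast cancer cell lines were seeded (20 µl suspension) into 384-well plates holding compound at 5 concentrations in 10-fold steps over a compound-specific 10,000-fold range and incubated 72 h, then read for CellTox Green fluorescence (485/520 nm) and CellTiter-Glo luminescence. Normalisation on each plate used 0.1 % DMSO (100) and a positive kill control (0).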

[2] = test system: BT-549
Outline: as §1

[3] = test system: CAL-120
Outline: as §1

[4] = test system: CAL-148
Outline: as §1

[5] = test system: CAL-51
Outline: as §1

[6] = test system: CAL-85-1
Outline: as §1

[7] = test system: DU-4475
Outline: as §1

[8] = test system: HCC1143
Outline: as §1

[9] = test system: HCC1599
Outline: as §1

[10] = test system: HCC1937
Outline: as §1

[11] = test system: HDQ-P1
Outline: as §1

[12] = test system: Hs578T
Outline: as §1

[13] = test system: MCF-10A
Outline: as §1

[14] = test system: MDA-MB-231
Outline: as §1

[15] = test system: MDA-MB-436
Outline: as §1

[16] = test system: MDA-MB-453
Outline: as §1

[17] = test system: MDA-MB-468
Outline: as §1

[18] = test system: MFM-223
Outline: as §1

[19] = test system: SK-BR-3
Outline: as §1

SMILES	normalised response [1] [%]	normalised response [2] [%]	normalised response [3] [%]	normalised response [4] [%]	normalised response [5] [%]	normalised response [6] [%]	normalised response [7] [%]	normalised response [8] [%]	normalised response [9] [%]	normalised response [10] [%]	normalised response [11] [%]	normalised response [12] [%]	normalised response [13] [%]	normalised response [14] [%]	normalised response [15] [%]	normalised response [16] [%]	normalised response [17] [%]	normalised response [18] [%]	normalised response [19] [%]
CCCCC/C=C/C=C1/C(=O)C=C[C@@H]1C/C=C\CCCC(=O)O [15D-PGJ2] (0.8 nM)	103	97.8	100	107	81.2	94.7	102	108	93.8	108	98.9	101	104	102	98.2	97	92.8	102	101
O=C(Nc1c[nH]nc1-c1nc2ccc(CN3CCOCC3)cc2[nH]1)NC1CC1 [AT9283] (0.1 nM)	102	89	45.5	99.5	81.9	95.8	101	97	109	99.9	96.8	97.5	97.5	104	97.5	98.4	97.2	100	90
COc1cc(CCc2cc(NC(=O)c3ccc(N4CC(C)NC(C)C4)cc3)n[nH]2)cc(OC)c1 (stereo not given) [AZD4547] (0.1 nM)	97.5	105	104	82.8	135	97.9	97.9	101	115	94.2	99.9	95.3	92.3	101	102	97.5	103	93.2	91.5
COc1cc(CCc2cc(NC(=O)c3ccc(N4CC(C)NC(C)C4)cc3)n[nH]2)cc(OC)c1 (stereo not given) [AZD4547] (1 nM)	103	94.8	101	85	102	96.9	94.6	97	104	98.4	98.3	98.6	96.7	96	97.2	91.9	97.8	91.9	106
CC(=O)OC[C@H]1O[C@@H]([S-])[C@H](OC(C)=O)[C@@H](OC(C)=O)[C@@H]1OC(C)=O.CCP(CC)CC.[Au+] [Auranofin] (0.25 nM)	99.4	97.4	100	101	70.1	93.8	97.9	99	75.3	92.3	99.9	104	108	104	93.8	103	95.7	103	101
CC(=O)OC[C@H]1O[C@@H]([S-])[C@H](OC(C)=O)[C@@H](OC(C)=O)[C@@H]1OC(C)=O.CCP(CC)CC.[Au+] [Auranofin] (2.5 nM)	99.4	95.8	92.5	106	111	95.4	105	97.8	87.5	94.5	91.3	103	107	108	103	99.8	99.2	104	104
CCC/C=C/C=C/C(=O)O[C@H]1/C(=C/C(=O)OC)C[C@H]2C[C@H]([C@@H](C)O)OC(=O)C[C@H](O)C[C@@H]3C[C@H](OC(C)=O)C(C)(C)[C@](O)(C[C@@H]4C/C(=C/C(=O)OC)C[C@H](/C=C/C(C)(C)[C@]1(O)O2)O4)O3 [Bryostatin 1] (0.01 nM)	106	99.1	96.1	101	92.1	101	107	97.7	118	98.6	97.8	100	108	105	101	109	104	105	103
CO[C@@H](C(=O)N1Cc2[nH]nc(NC(=O)c3ccc(N4CCN(C)CC4)cc3)c2C1)c1ccccc1 [Danusertib] (1 nM)	101	102	99.1	98.2	101	96.3	99	91.5	121	95.5	93.9	98	94.2	104	103	110	101	94.8	90.8
Cc1nc(Nc2ncc(C(=O)Nc3c(C)cccc3Cl)s2)cc(N2CCN(CCO)CC2)n1 [Dasatinib] (0.1 nM)	97.3	98.3	98.9	96.9	77	94.2	94.6	96.5	99	98.5	98.9	99.7	107	93.9	101	112	93.3	99.9	98.3
O=S(=O)(c1cccc2cnccc12)N1CCCNCC1 [Fasudil] (5 nM)	97.4	99.6	95.5	105	81.8	102	101	96.1	109	94.8	103	97.3	97.9	101	98	107	103	99.3	101
